Patent publication US6605620B1, “Cyclic amine compounds and pharmaceutical composition containing the same” (Kowa Co., Ltd., priority 2001, dated 2003)
Structures can show the parent of a compound that is named as a salt.

The compounds below were run on U937 cells adhered to HUVEC stimulated by TNFα (assay: Inhibitory effect on cell adhesion (U937 adhesion to TNFα-stimulated HUVEC)). Conditions: Homo sapiens; U937 adhesion to TNFα-stimulated HUVEC; fluorescence (PKH2) readout.
Assay type: cell-based, human
Experimental: The test was conducted by reference to the method by Ross et al. (J. Biol. Chem., 267 8537-8543 (1992)). More specifically, after human umbilical venous endothelial cells (HUVEC) were cultured on a 48-well plate to confluent growth, TNFα was added thereto. Upon elapsed time of 5 hours after the addition, U937, which was a human monocytic/histocytic cell fluorescence-labeled with PKH2 (product of Sigma-Aldrich Co., Ltd.), was added in a proportion of 1×10^6 cells per well. After the plate was left at rest at room temperature for 1 hour, unadhered U937 was washed out and lysed in 1% Triton X-100 to measure a remaining fluorescence intensity (excitation wavelength: 480 nm; measuring wavelength: 530 nm). HUVEC and U937 were cultured in EGM-2 (product of Sanko Junyaku K. K.) and 10% FCS-containing RPMI1640, respectively. Each test agent was added to HUVEC upon the addition of TNFα and to U937 24 hours prior to the cell adhesion test. The inhibitory activity was calculated out as IC50 value after inhibitory ratio at each concentration of test compounds was determined. The inhibitory ratio was calculated according to the equation […], wherein A is the number of U937 cells adhered to HUVEC stimulated by TNFα when no test agent was added, B is the number of U937 cells adhered to HUVEC not stimulated by TNFα when no test agent was added, and C is the number of U937 cells adhered to HUVEC stimulated by TNFα when the test agent was added. As control compounds, Test Compound 1 described in Japanese Patent Application Laid-Open No. 9-143075 and dilazep described in Japanese Patent Application Laid-Open No. 11-92382 were simultaneously evaluated.

Row | Compound | IC50 [nM]
1 | COc1cc(-c2cncc(CN(C)C3CCN(Cc4ccnc(-c5cc(OC)c(OC)c(OC)c5)c4)CC3)c2)cc(OC)c1OC [Example 7, 4-[N-Methyl-N-[[5-(3,4,5-trimethoxyphenyl)pyridin-3-yl]methyl]amino]-1-[[2-(3,4,5-trimethoxyphenyl)pyridin-4-yl]methyl]piperidine Difumarate] | 300
2 | COc1cc(-c2cc(CN3CCC(N(Cc4ccccc4)Cc4ccnc(-c5cc(OC)c(OC)c(OC)c5)c4)CC3)ccn2)cc(OC)c1OC [Example 16, 4-[N-Benzyl-N-[[2-(3,4,5-trimethoxyphenyl)pyridin-4-yl]methyl]amino]-1-[[2-(3,4,5-trimethoxyphenyl)pyridin-4-yl]methyl]piperidine Tetrahydrochloride] | 300
3 | COc1cc(OC)cc(N(Cc2ccnc(-c3cc(OC)c(OC)c(OC)c3)c2)C2CCN(Cc3ccnc(-c4cc(OC)c(OC)c(OC)c4)c3)CC2)c1 [Example 23, 4-[N-(3,5-Dimethoxyphenyl)-N-[[2-(3,4,5-trimethoxyphenyl)pyridin-4-yl]methyl]amino]-1-[[2-(3,4,5-trimethoxyphenyl)pyridin-4-yl]methyl]piperidine Trihydrochloride] | 30
4 | COc1cc(-c2cc(CN3CC[C@H](N(C)Cc4ccnc(-c5cc(OC)c(OC)c(OC)c5)c4)C3)ccn2)cc(OC)c1OC [Example 3, (3S)-3-[N-Methyl-N-[[2-(3,4,5-trimethoxyphenyl)pyridin-4-yl]methyl]amino]-1-[[2-(3,4,5-trimethoxyphenyl)pyridin-yl]methyl]pirrolidine Tertrahydrochloride] | 300
5 | COc1cc(-c2cc(CN3CCC(N(Cc4ccnc(-c5cc(OC)c(OC)c(OC)c5)c4)c4ccc5c(c4)OCO5)CC3)ccn2)cc(OC)c1OC [Example 29, 4-[N-(3,4-Methylenedioxyphenyl)-N-[[2-(3,4,5-trimethoxyphenyl)pyridin-4-yl]methyl]amino]-1-[[2-(3,4,5-trimethoxyphenyl)pyridin-4-yl]methyl]piperidine Trihydrochloride] | 30
6 | COc1cccc(N(Cc2ccnc(-c3cc(OC)c(OC)c(OC)c3)c2)C2CCN(Cc3cncc(-c4cc(OC)c(OC)c(OC)c4)c3)CC2)c1 [Example 89, 4-[N-(3-Methoxyphenyl)-N-[[2-(3,4,5-trimethoxyphenyl)pyridin-4-yl]methyl]amino]-1-[[3-(3,4,5-trimethoxyphenyl)pyridin-5-yl]methyl]piperidine Trihydrochloride] | 90
7 | COc1cc(-c2cc(CN3CCC(N(C)Cc4ccnc(-c5cc(OC)c(OC)c(OC)c5)c4)CC3)ccn2)cc(OC)c1OC [Example 36, 4-[N-Methyl-N-[[2-(3,4,5-trimethoxyphenyl)pyridin-4-yl]methyl]amino]-1-[[2-(3,4,5-trimethoxyphenyl)pyridin-4-yl]methyl]piperidine Tetrahydrochloride] | 200
8 | COc1cc(-c2cncc(CN(Cc3ccccc3)C3CCN(Cc4ccnc(-c5cc(OC)c(OC)c(OC)c5)c4)CC3)c2)cc(OC)c1OC [Example 19, 4-[N-Benzyl-N-[[5-(3,4,5-trimethoxypheny)pyridin-3-yl]methyl]amino]-1-[[2-(3,4,5-trimethoxyphenyl)pyridin-4-yl]methyl]piperidine Tetrahydrochloride] | 300
9 | COc1cc(-c2cc(CN3CCC(N(Cc4ccnc(-c5cc(OC)c(OC)c(OC)c5)c4)c4ccc(SC)cc4)CC3)ccn2)cc(OC)c1OC [Example 111, 1-[[2-(3,4,5-Trimethoxyphenyl)pyridin-4-yl]methyl]-4-[N-[[2-(3,4,5-trimethoxyphenyl)pyridin-4-yl]methyl]-N-(4-methylthiophenyl)amino]piperidine Trihydrochloride] | 80
10 | COc1cccc(N(Cc2ccnc(-c3cc(OC)c(OC)c(OC)c3)c2)C2CCN(Cc3ccnc(-c4cc(OC)c(OC)c(OC)c4)c3)CC2)c1 [Example 88, 4-[N-(3-Methoxyphenyl)-N-[[2-(3,4,5-trimethoxyphenyl)pyridin-4-yl]methyl]amino]-1-[[2-(3,4,5-trimethoxyphenyl)pyridin-4-yl]methyl]piperidine Trihydrochloride] | 70
11 | COc1ccc(N(Cc2ccnc(-c3cc(OC)c(OC)c(OC)c3)c2)C2CCN(Cc3ccnc(-c4cc(OC)c(OC)c(OC)c4)c3)CC2)cc1 [Example 10, 4-[N-(4-Methoxyphenyl)-N-[[2-(3,4,5-trimethoxypheny)pyridin-4-yl]methyl]amino]-1-[[2-(3,4,5-trimethoxyphenyl)pyridin-4-yl]methyl]piperidine Trihydrochloride] | 40
12 | COc1ccc(N(Cc2cncc(-c3cc(OC)c(OC)c(OC)c3)c2)C2CCN(Cc3ccnc(-c4cc(OC)c(OC)c(OC)c4)c3)CC2)cc1 [Example 13, 4-[N-(4-Methoxyphenyl)-N-[[5-(3,4,5-trimethoxyphenyl)pyridin-3-yl]methyl]amino]-1-[[2-(3,4,5-trimethoxyphenyl)pyridin-4-yl]methyl]piperidine Trihydrochloride] | 30
13 | COc1cc(-c2cc(CN3CCC(N(Cc4ccnc(-c5cc(OC)c(OC)c(OC)c5)c4)c4ccc(F)cc4)CC3)ccn2)cc(OC)c1OC [Example 157, 4-[N-(4-Fluorophenyl)-N-[[2-(3,4,5-trimethoxyphenyl)pyridin-4-yl]methyl]amino]-1-[[2-(3,4,5-trimethoxyphenyl)pyridin-4-yl]methyl]piperidine Trihydrochloride] | 90
14 | COc1cc(-c2cc(CNC3CCN(Cc4ccnc(-c5cc(OC)c(OC)c(OC)c5)c4)CC3)ccn2)cc(OC)c1OC [Example 5, 1-[[2-(3,4,5-Trimethoxyphenyl)pyridin-4-yl]methyl]-4-[[2-(3,4,5-trimethoxyphenyl)pyridin-4-yl]methylamino]piperidine Difumalate] | 200
15 | COc1ccc(N(Cc2ccnc(-c3cc(OC)c(OC)c(OC)c3)c2)C2CCN(Cc3cncc(-c4cc(OC)c(OC)c(OC)c4)c3)CC2)cc1 [Example 67, 4-[N-(4-Methoxyphenyl)-N-[[2-(3,4,5-trimethoxyphenyl)pyridin-4-yl]methyl]amino]-1-[[3-(3,4,5-trimethoxyphenyl)pyridin-5-yl]methyl]piperidine Trihydrochloride] | 90
16 | COc1cc(-c2cc(CN3CCC(N(Cc4ccnc(-c5cc(OC)c(OC)c(OC)c5)c4)c4ccccc4)CC3)ccn2)cc(OC)c1OC [Example 42, 4-[N-Phenyl-N-[[2-(3,4,5-trimethoxyphenyl)pyridin-4-yl]methyl]amino]-1-[[2-(3,4,5-trimethoxyphenyl)pyridin-4-yl]methyl]piperidine Trihydrochloride] | 70
17 | COc1cc(C(=O)OCCCN2CCCN(CCCOC(=O)c3cc(OC)c(OC)c(OC)c3)CC2)cc(OC)c1OC [Dilazep, dilazep, reference compound] | > 10000

Same assay, conditions: examined similar to the Test Example 1 procedure; even at a concentration as high as 10 μM

Row | Compound | inhibitory effect on cell adhesion (result in words)
18 | c1cc(CNC2CCN(Cc3ccncc3)CC2)ccn1 [Preparation Example 91, 1-(4-Pycolyl)-4-(4-pycolylamino)piperidine Tetrahydrochloride, reference compound] | inactive
